Where “and” joins values, the source holds several entries; their conditions need not be identical. Equal entries are not always repeated. Where two headings read alike, the source gives them in different places.
Legend:
MC-26 tumor [1] = settings: for overall survival rate: day 50
Method: Starting on day 7 after tumor cell inoculation, mice were randomly divided into eight groups as follow:
Group 1: control; control chow; 0.9% NaCl injected intraperitoneally (IP) on days 9, 11, 15, 18, 23, and 28; and 5% IP glucose on days 8, 12, 15, 19, 22, and 25.
Group 4: irinotecan alone; control chow; irinotecan 30 mg/kg on days 8, 12, 15, 19, 22, and 25; and 0.9% NaCl on days 9, 11, 15, 18, 23, and 28.
The date and number of animal in each group were recorded for survival analysis.

[2] = meta-analysis (Lewis et al., 2002); cited from earlier work
[3] = tested on: CD31 positive microvessels; assay: CD31 microvessel immunohistochemistry of tumor sections; type: in vivo, mouse; settings: P=0.059
Method: To assess anigiogenesis in tumor tissues, frozen sections were made and microvessels were stained with anti-mouse CD31 mnonocolonal antibodies (BD transduction laboratories). The specimens were incubated with secondary antibody for 1 h at 37° C. and stained by the avidin-biotin peroxide complex (ABC) method using an ABC staining kit (Santa Cruz Biotech, Santa Cruz, Calif.). They were visualized by 3,3′-diammobenzidme (DAB) and counlterstained with hematoxyhn.

MC-26 tumor [4] = assay: Subcutaneous MC-26 tumor model, single agent
MC-26 cells = assay: In vitro cell proliferation assay (MTT), MC-26; type: cell-based, mouse; settings: 72 h
Method: (§1) The transplantable mouse CRC cell line MC-26 (Singh et al., 1986) was obtained from Dr. K. K. Tanabe (Massachusetts General Hospital, Boston, Mass.), and the human colorectal adenocarcinoma cell line HT 29 was obtained from ATCC. MC-26 cells and HT-29 were maintained in Dulbecco's modified Eagle's medium (DMEM; Life Technologies, Inc, Gaithersburg, Md.) and McCoy's 5A medium, respectively, supplemented with 10% fetal calf sertum plus antibiotics at 37° C. in a humidified atmosphere of 95% air/5% C02. Human umbilical vein endothelial cells (HUVECs) was purchased from Canibrex (Walkersville, Md.) and maintained in EGM-2 medium (Cambrex).
In Vitro cell proliferation was assessed using a CellTiter 96®AQ One Solution Cell Proliferation Assay kit (Promega). 1-3×10^4 cells/ml were plated in 96-well microtiter plates and incubated overnight. […]

MC-26 cell PGE2 levels = assay: Prostaglandin E2 ELISA, MC-26 conditioned medium; type: cell-based, mouse; settings: MC-26 cells, 1000 μM, 24 h
Method: as §1
(§2) Prostaglandin E2 (PGE2), the major metabolite of arachidonic acid metabolism, was measured by ELISA (Cayman Chemical, Ami Arbor, Mich.), using conditional cell culture medium, according to the protocol provided by manufacturer. Measurements were made in triplicate in separate experiments.

HUVECs = assay: In vitro angiogenesis (tube formation) assay; type: cell-based, human; settings: 1000 μM
Method: An in vitro anigiogenesis assay was performed according to the protocol provided by manufacturer (Chemicon, Temecula, Calif.) and described previously ([…] et al., 2004; […] et al., 2004). […] Microscopic digital images were taken, and cumulative tube length was measured using SpotTM3.5.6.

HT-29 tumor = assay: HT-29 human xenograft CRC model in nude mice; settings: throughout the period of investigation
[5] = Gross necroscopic examination for GI mucosal injury; type: in vivo, mouse; settings: mice consuming chow containing ibuprofen
[6] = Plasma ibuprofen concentration in mice fed ibuprofen chow; type: in vivo, mouse; settings: mice fed chow containing 1360 mg/kg; blood on days 7 and 14
Method: Ibuprofen was purchased from Sigma, and pellet-formed chow containing ibuprofen was prepared by Harlan Teklad (Madison, Wis.). Blood was drawn on day 7 and 14 by tail bleeding, and serum was separated from the whole blood and frozen at −70° C. until analysis.
The plasma samples were analyzed by a quantified liquid chromatography-tandem mass spectrometry (LC/MS/MS) method. Sample preparation was performed using protein precipitation.
A […] aliquot of internal standard working solution (3000 ng/mL of Phenacetin I.S. in acetonitrile) was added to 25 μL of plasma. Each sample was then vortexed and centrifuged for 15 min at a speed of 13,000 rpm at 4° C.
After centrifugation, 150 μL of the supernatant was transferred into an HPLC vial, and aliquots of 5 μL were injected using a Perkin Elmer 200 Series autosampler (Perkin Elmer: Norwalk Conn.). The loading and analytical columns were a Zorbax Extend C18 (4.6×12.5 mm, 5 μdp; Agilent Technologies: Palo Alto, Calif.) and a Waters Xterra C 18 (3.9×20 mm, 3.5 μdp; Waters Corporation: Milfaird, Mass.), respectively. […] The column effluent was analyzed by selected reaction monitoring using a triple quadruple mass spectrometer (Micromass Quattro Ultima; Manchester, UK) equipped with an electrospray ion source operating in negative ion mode.

HT-29 cells = assay: In vitro cell proliferation assay (MTT), HT-29; type: cell-based, human; settings: HT-29, 1000 μM, 72 h
Method: as §1
(§3) In Vitro cell proliferation was assessed using a CellTiter 96®AQ One Solution Cell Proliferation Assay kit (Promega). 1-3×10^4 cells/ml were plated in 96-well microtiter plates and incubated overnight. […] 20 μl of MTS tetrazolium solution were added to each well, and the cells were further incubated at 37° C. for 1 h, at which time the reactions were stopped by the addition of 10% SDS. The absorbance at wavelength 490 nm was measured using an EX800 microplate reader (Bio-Tek, Highland, Wis.).

HUVEC = HUVEC cell proliferation (MTT); type: cell-based, human; settings: 1000 μM, 24 h
Method: as §1, §3

[7] = cited from earlier work
MC-26 liver metastasis = assay: Experimental liver metastasis model (subsplenic MC-26 injection); type: in vivo, mouse; settings: 1360 mg/kg chow for 14 days
Method: The incidence and extent of liver metastasis were then recorded.

HT-29 cells PGE2 levels = assay: Prostaglandin E2 ELISA, HT-29 conditioned medium; type: cell-based, human; settings: 24 h
Method: as §1, §2

CCc1c2c(nc3ccc(OC(=O)N4CCC(N5CCCCC5)CC4)cc13)-c1cc3c(c(=O)n1C2)COC(=O)[C@]3(O)CC [CPT-11, Irinotecan]
average body weight (MC-26 tumor [1]; day 28, average over the named groups, control 19.65±1.24): 23.1 ± 1.72 g
overall survival rate (MC-26 tumor [1]; 5-FU given with leucovorin): 80%
survival compared to control mice and other regimens (MC-26 tumor [1]; mouse, in vivo): significantly prolonged

CN1C(C(=O)Nc2ccccn2)=C(O)c2ccccc2S1(=O)=O [piroxicam]
odds ratio, serious upper GI bleeding [2]: 13.1

O=C(O)Cc1ccccc1Nc1c(Cl)cccc1Cl [diclofenac]
odds ratio, serious upper GI bleeding [2]: 4.9

COc1ccc2cc([C@H](C)C(=O)O)ccc2c1 [naproxen]
odds ratio, serious upper GI bleeding [2]: 9.1

CC(C)Cc1ccc(C(C)C(=O)O)cc1 (stereo not drawn) [ibuprofen]
reduction in number of microvessels [3]: ~30%
tumor growth inhibited (MC-26 tumor [4]; chow containing 1360 ppm, summary over mouse and human CRC models): 40-82%
average body weight (MC-26 tumor [4]; day 21, control 20.3±2.6): 24.1 ± 1.73 g
decrease in MC-26 cell proliferation (MC-26 cells; 125 μM): 1.3%
decrease in MC-26 cell proliferation (MC-26 cells; 250 μM): 5.8%
decrease in MC-26 cell proliferation (MC-26 cells; 500 μM): 11.3%
decrease in MC-26 cell proliferation (MC-26 cells; 1000 μM): 39.8%
PGE2 levels diminished compared to control (MC-26 cell PGE2 levels): 70.1%
PGE2 level (MC-26 cell PGE2 levels; control 268.5): 80.0 pg/mL
reduction in tube length (HUVECs; 6 h): 40%
tube length (HUVECs; 6 h, control 155.4±21.3): 94.0±24.9 μm
reduction in tube length (HUVECs; 24 h): 88%
tube length (HUVECs; 24 h, control 76.2±13.5): 9.40±6.95 μm
body weight vs control (HT-29 tumor): no significant difference in body weight
gastroduodenal / GI mucosal injury [5]: no evidence of gastroduodenal mucosal injury
gastroduodenal / GI mucosal injury ([5]; listed as Ibuprofen): No GI mucosal injury
plasma ibuprofen concentration [6]: ~18,760±7,270 ng/ml and ~20,978±5,966 ng/ml
MTT levels diminished compared to control (HT-29 cells): 26.7%
MTT levels diminished compared to control (HUVEC): approximately 80%
plasma ibuprofen peak concentration ([7]; 300 mg capsule, fasting humans (Halsas et al., 1999)): approximately 27,000 ng/ml
peak plasma concentration (Cmax) ([7]; healthy humans, long-term high-dose 14 mg/kg): 65,000 ng/ml
Cmax ([7]; healthy humans, low dose 2.6 mg/kg): 15,800 ng/ml
Cmax ([7]; healthy humans, moderate dose 7 mg/kg): 34,000 ng/ml
peak plasma ibuprofen concentration ([7]; single dose of 300 mg, humans (Halsas et al., 1999)): ≥ 27,000 ng/mil
liver metastases vs control (MC-26 liver metastasis): more prevalent and larger in the control group
liver metastases vs control (MC-26 liver metastasis; listed as IB): Fewer liver metastases
PGE2 levels diminished compared to control (HT-29 cells PGE2 levels): 81.1%
PGE2 level (HT-29 cells PGE2 levels; control 95.6 pg/mL): 18 pg/mL

O=c1[nH]cc(F)c(=O)[nH]1 [5-FU, Fluorouracil]
overall survival rate (MC-26 tumor [1]; 5-FU given with leucovorin): 30%
tumor volume (MC-26 tumor [1]; treatment day 7 to 28, 5-FU given with leucovorin, control 1491.3±862): 499±234 mm^3
